Data taken from patent US20020051978A1, “Methods and compositions for the identification, assessment, prevention and therapy of human cancers” (priority 2000, published 2002).
Where a name gives a salt, the structure may show the parent alone.

Test system: 60 cancer cell lines (NCI 60 cancer cell line series)
Assay: NCI-DTP in vitro cancer screen, sulforhodamine B (SRB) growth inhibition, 48 hour exposure
Type: cell-based, human
Design: key to sensitivity class Ovarian OVCAR-8 CL6005 / sensitivity class Ovarian SK-OV-3 CL6011 / sensitivity class Prostate DU-145 CL11003 / sensitivity class NSCLC NCI-H522 CL1003 / sensitivity class Ovarian IGROV1 CL6010 / sensitivity class Ovarian OVCAR-4 CL6002 / sensitivity class Prostate PC-3(I) CL11001 / sensitivity class Renal A498 CL9013 / sensitivity class Renal SN12C CL9008: sensitivity class: 1 = Low, 2 = Medium, 3 = High
In short: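 Values come from the NCI-DTP screen database: -log GI50, the concentration giving 50% growth inhibition, derived from SRB cell-mass dose-response curves. Each line seeded at its own density, treated day 1 at five ten-fold-spaced doses in duplicate wells, stained after 48 h.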

## CC[C@]1(O)C[C@H]2CN(CCc3c([nH]c4ccccc34)[C@@](C(=O)OC)(c3cc4c(cc3OC)N(C=O)[C@H]3[C@@](O)(C(=O)OC)[C@H](OC(C)=O)[C@]5(CC)C=CCN6CC[C@]43[C@@H]65)C2)C1 [Vincristine sulfate]
Breast BT-549 (CL5013)
  classification of cell line as Low(1), Medium(2) or High(3) sensitivity to compound: 2
Breast HS-578T CL5006
  classification of cell line as Low(1), Medium(2) or High(3) sensitivity to compound: 2
Breast MCF7(I) (CL5001)
  classification of cell line as Low(1), Medium(2) or High(3) sensitivity to compound: 2
Breast MCF7/ADRr (CL5002)
  classification of cell line as Low(1), Medium(2) or High(3) sensitivity to compound: 2
Breast MDA-MB-231 CL5005
  classification of cell line as Low(1), Medium(2) or High(3) sensitivity to compound: 2
Breast MDA-MB-435 (CL5011)
  classification of cell line as Low(1), Medium(2) or High(3) sensitivity to compound: 2
Breast MDA-N CL5012
  classification of cell line as Low(1), Medium(2) or High(3) sensitivity to compound: 1
Breast T-47D (CL5014)
  classification of cell line as Low(1), Medium(2) or High(3) sensitivity to compound: 2
CNS SF-268 CL12014
  classification of cell line as Low(1), Medium(2) or High(3) sensitivity to compound: 3
CNS SF-295 CL12015
  classification of cell line as Low(1), Medium(2) or High(3) sensitivity to compound: 3
CNS SF-539 CL12016
  classification of cell line as Low(1), Medium(2) or High(3) sensitivity to compound: 3
CNS SNB-19 (CL12002)
  classification of cell line as Low(1), Medium(2) or High(3) sensitivity to compound: 2
CNS SNB-75(I) CL12005
  classification of cell line as Low(1), Medium(2) or High(3) sensitivity to compound: 2
CNS U251(I) CL12009
  classification of cell line as Low(1), Medium(2) or High(3) sensitivity to compound: 2
Colon COLO-250 CL4010
  classification of cell line as Low(1), Medium(2) or High(3) sensitivity to compound: 2
Colon HCC-2998 (CL4002)
  classification of cell line as Low(1), Medium(2) or High(3) sensitivity to compound: 2
Colon HCT-15 CL4015
  classification of cell line as Low(1), Medium(2) or High(3) sensitivity to compound: 2
Colon HCT-116 (CL4003)
  classification of cell line as Low(1), Medium(2) or High(3) sensitivity to compound: 2
Colon HT29(I) CL4001
  classification of cell line as Low(1), Medium(2) or High(3) sensitivity to compound: 3
Colon KM12 (CL4017)
  classification of cell line as Low(1), Medium(2) or High(3) sensitivity to compound: 3
Colon SW-620 (CL4009)
  classification of cell line as Low(1), Medium(2) or High(3) sensitivity to compound: 3
Leukemia CCRF-CEM(I) (CL7003)
  classification of cell line as Low(1), Medium(2) or High(3) sensitivity to compound: 3
Leukemia HL-60(I) (CL7008)
  classification of cell line as Low(1), Medium(2) or High(3) sensitivity to compound: 3
Leukemia K562(I) CL7005
  classification of cell line as Low(1), Medium(2) or High(3) sensitivity to compound: 3
Leukemia MOLT-4 (CL7006)
  classification of cell line as Low(1), Medium(2) or High(3) sensitivity to compound: 3
Leukemia RPMI-8226(I) (CL7010)
  classification of cell line as Low(1), Medium(2) or High(3) sensitivity to compound: 3
Leukemia SR CL7019
  classification of cell line as Low(1), Medium(2) or High(3) sensitivity to compound: 3
Melanoma LOX IMVI CL10001
  classification of cell line as Low(1), Medium(2) or High(3) sensitivity to compound: 3
Melanoma M14 (CL10014)
  classification of cell line as Low(1), Medium(2) or High(3) sensitivity to compound: 2
Melanoma MALME-3M CL10002
  classification of cell line as Low(1), Medium(2) or High(3) sensitivity to compound: 2
Melanoma SK-MEL-2 (CL10005)
  classification of cell line as Low(1), Medium(2) or High(3) sensitivity to compound: 2
Melanoma SK-MEL-5 (CL10007)
  classification of cell line as Low(1), Medium(2) or High(3) sensitivity to compound: 3
Melanoma SK-MEL-28 (CL10008)
  classification of cell line as Low(1), Medium(2) or High(3) sensitivity to compound: 1
Melanoma UACC-62 (CL10020)
  classification of cell line as Low(1), Medium(2) or High(3) sensitivity to compound: 2
Melanoma UACC-257 (CL10021)
  classification of cell line as Low(1), Medium(2) or High(3) sensitivity to compound: 2
NSCLC A549/ATCC (CL1004)
  classification of cell line as Low(1), Medium(2) or High(3) sensitivity to compound: 2
NSCLC EKVX (CL1008)
  classification of cell line as Low(1), Medium(2) or High(3) sensitivity to compound: 1
NSCLC HOP-62 (CL1026)
  classification of cell line as Low(1), Medium(2) or High(3) sensitivity to compound: 2
NSCLC HOP-92 (CL1029)
  classification of cell line as Low(1), Medium(2) or High(3) sensitivity to compound: 2
NSCLC NCI-H226 CL1013
  classification of cell line as Low(1), Medium(2) or High(3) sensitivity to compound: 2
Cell line NSCLC NCI-H23(I), CL1001
  sensitivity class NSCLC NCI-H23(I) CL1001: 3
Cell line NSCLC NCI-H332M, CL1017
  sensitivity class NSCLC NCI-H332M CL1017: 2
Cell line NSCLC NCI-H460, CL1021
  sensitivity class NSCLC NCI-H460 CL1021: 3
Cell line NSCLC NCI-H522, CL1003
  sensitivity class NSCLC NCI-H522 CL1003: 3
Cell line Ovarian IGROV1, CL6010
  sensitivity class Ovarian IGROV1 CL6010: 3
Cell line Ovarian OVCAR-3, CL6001
  sensitivity class Ovarian OVCAR-3 CL6001: 3
Cell line Ovarian OVCAR-4, CL6002
  sensitivity class Ovarian OVCAR-4 CL6002: 2
Cell line Ovarian OVCAR-5, CL6003
  sensitivity class Ovarian OVCAR-5 CL6003: 1
Cell line Ovarian OVCAR-8, CL6005
  sensitivity class Ovarian OVCAR-8 CL6005: 3
Cell line Ovarian SK-OV-3, CL6011
  sensitivity class Ovarian SK-OV-3 CL6011: 2
Cell line Prostate DU-145, CL11003
  sensitivity class Prostate DU-145 CL11003: 2
Cell line Prostate PC-3(I), CL11001
  sensitivity class Prostate PC-3(I) CL11001: 2
Cell line Renal 786-O, CL9018
  sensitivity class Renal 786-O CL9018: 2
Cell line Renal A498, CL9013
  sensitivity class Renal A498 CL9013: 3
Cell line Renal ACHN, CL9023
  sensitivity class Renal ACHN CL9023: 2
Cell line Renal CAKI-1, CL9015
  sensitivity class Renal CAKI-1 CL9015: 2
Cell line Renal RXF-393, CL9016
  sensitivity class Renal RXF-393 CL9016: 2
Cell line Renal SN12C, CL9008
  sensitivity class Renal SN12C CL9008: 2
Cell line Renal TK10, CL9024
  sensitivity class Renal TK10 CL9024: 1
Cell line Renal UO-31, CL9004
  sensitivity class Renal UO-31 CL9004: 1
